Test results reported in PMC6349357, “Computational and experimental analysis of bioactive peptide linear motifs in the integrin adhesome” (PLoS ONE, 2019).
Entries after “also recorded” stand apart in the source; their conditions may differ. Marks after values point to notes of the source that are not given here.

Legend:
vinculin in HeLa cells = target: T1, vinculin in HeLa cells (Homo sapiens, UniProt P18206); test: Co-localization of 5FAM-labeled peptide with vinculin in HeLa cells (microscopy); assay type: cell-based; conditions: 15 μM, 5-15 minutes
T1 construct: endogenous in cells; host or cells: HeLa
T1 sequence (P18206 1-1066 isoform P18206-2): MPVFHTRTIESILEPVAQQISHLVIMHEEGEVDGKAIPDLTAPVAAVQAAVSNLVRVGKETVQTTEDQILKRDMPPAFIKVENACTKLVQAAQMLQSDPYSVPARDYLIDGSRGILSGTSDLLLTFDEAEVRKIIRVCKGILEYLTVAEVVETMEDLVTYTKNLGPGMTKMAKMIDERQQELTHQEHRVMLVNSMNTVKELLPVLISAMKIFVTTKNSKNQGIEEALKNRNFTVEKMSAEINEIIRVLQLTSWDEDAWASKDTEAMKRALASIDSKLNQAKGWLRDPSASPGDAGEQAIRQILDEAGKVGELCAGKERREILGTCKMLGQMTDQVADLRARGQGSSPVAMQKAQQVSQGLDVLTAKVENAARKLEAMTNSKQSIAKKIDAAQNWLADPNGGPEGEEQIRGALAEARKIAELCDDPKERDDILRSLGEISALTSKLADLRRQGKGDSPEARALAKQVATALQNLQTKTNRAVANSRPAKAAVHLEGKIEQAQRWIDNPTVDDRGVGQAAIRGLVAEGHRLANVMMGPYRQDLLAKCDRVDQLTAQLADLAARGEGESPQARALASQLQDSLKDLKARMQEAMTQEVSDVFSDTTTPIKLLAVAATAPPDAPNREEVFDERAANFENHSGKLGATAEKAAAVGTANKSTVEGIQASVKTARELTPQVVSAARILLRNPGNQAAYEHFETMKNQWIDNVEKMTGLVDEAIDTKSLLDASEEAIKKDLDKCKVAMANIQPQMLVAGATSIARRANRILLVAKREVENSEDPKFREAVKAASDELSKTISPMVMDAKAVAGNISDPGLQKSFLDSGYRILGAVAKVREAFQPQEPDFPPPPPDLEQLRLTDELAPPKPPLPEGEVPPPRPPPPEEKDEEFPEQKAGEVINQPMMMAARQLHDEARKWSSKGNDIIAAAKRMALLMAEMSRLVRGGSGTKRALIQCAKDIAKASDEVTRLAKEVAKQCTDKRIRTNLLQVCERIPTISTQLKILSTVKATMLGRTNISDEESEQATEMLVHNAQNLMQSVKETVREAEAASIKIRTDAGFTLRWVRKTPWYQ
Protocol: (§1) HeLa cells were seeded on a 24-well plate with inserted coverslips at a density of 30000 cells/well. After 24h the cells were treated with 15 μM peptide for the desired amount of time (5, 10, 15 minutes). Cells were then fixed in 3% paraformaldehyde (PFA, Sigma) for 20 minutes and permeabilized with 0.1% Triton X-100 (Sigma) for 5 minutes at room temperature. Cells were then washed 3 times with PBS and stained with antibodies. Staining with primary antibody (paxillin/vinculin (Abcam)) was performed for 30 minutes, followed by three PBS washes and secondary staining using goat anti-mouse Alexa 568 antibody (Life Technologies) for 30 minutes. Then the nuclei were stained with 0.2 μg/ml Hoechst33342, the coverslips were thoroughly washed with PBS and mounted on glass slides with Mowiol mounting medium. The slides were then imaged on a FluoView FV1000 laser scanning microscope (Olympus) with 60x UPLSAPO 1.35NA (Olympus) oil immersion objective.

TRAP-activated platelets = test: Inhibition of TRAP-induced platelet aggregation after pre-incubation with peptide; assay type: cell-based, human (healthy volunteers)
In short: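 Aggregation was read by optical density at 37°C under 1100 rpm stirring. Samples were 3x10^5/μl washed human platelets, rested 45 min and supplemented with 1.8 mM calcium chloride. Peptide went in at 2 min, followed 6 min later by TRAP at an experiment-dependent concentration, with 7 min further recording.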

paxillin in HeLa cells = target: T2, paxillin in HeLa cells (Homo sapiens, UniProt P49023); test: Co-localization of 5FAM-labeled peptide with paxillin in HeLa cells (microscopy); assay type: cell-based; conditions: 15 μM, 5-15 minutes
T2 construct: endogenous in cells; host or cells: HeLa
Protocol: as §1

vinculin = target: T3, vinculin (Homo sapiens, UniProt P18206); test: Surface plasmon resonance, peptides injected over immobilised vinculin; assay type: binding; conditions: SPR, CM5 chip, serial peptide injections at 1 mM; rank order
T3 sequence (P18206 1-1066 isoform P18206-2): T1 sequence (P18206 1-1066 isoform P18206-2)
Protocol: The SPR experiments were performed using a Biacore T200 system (GE Healthcare), and Series S CM5 or SA chips with 4 flow cells each.
Lyophilized vinculin was dissolved in flow buffer to a concentration of 1 mg/ml and covalently coupled onto the carboxymethylated dextran matrix of CM5 sensor chips using standard amine coupling. The flow buffer contained 10 mM HEPES, 150 mM NaCl, 3 mM EDTA, 0.05% surfactant P20. The chip was activated with an injection of 70 μl of a mixture of 0.05 M EDC and 0.2 M NHS, followed by the injection of approximately 70 μl of 10 μg/ml vinculin in 10 mM sodium acetate, pH 5.0 in one flow cell to yield a response of 7200 RU. Remaining reactive groups in the channel were blocked with an injection of 100 μl ethanolamine. Binding experiments were performed by injecting peptides for 120 s at a flow rate of 20 μl/min, at a concentration of 1 mM in the flow buffer over the chip surface to monitor association kinetics, followed by buffer flow for 120 s to measure dissociation kinetics. Between experiments, the surface was regenerated by injecting a 60 second pulse of 10 mM glycine pH 2.

T2 sequence (P49023 whole entry): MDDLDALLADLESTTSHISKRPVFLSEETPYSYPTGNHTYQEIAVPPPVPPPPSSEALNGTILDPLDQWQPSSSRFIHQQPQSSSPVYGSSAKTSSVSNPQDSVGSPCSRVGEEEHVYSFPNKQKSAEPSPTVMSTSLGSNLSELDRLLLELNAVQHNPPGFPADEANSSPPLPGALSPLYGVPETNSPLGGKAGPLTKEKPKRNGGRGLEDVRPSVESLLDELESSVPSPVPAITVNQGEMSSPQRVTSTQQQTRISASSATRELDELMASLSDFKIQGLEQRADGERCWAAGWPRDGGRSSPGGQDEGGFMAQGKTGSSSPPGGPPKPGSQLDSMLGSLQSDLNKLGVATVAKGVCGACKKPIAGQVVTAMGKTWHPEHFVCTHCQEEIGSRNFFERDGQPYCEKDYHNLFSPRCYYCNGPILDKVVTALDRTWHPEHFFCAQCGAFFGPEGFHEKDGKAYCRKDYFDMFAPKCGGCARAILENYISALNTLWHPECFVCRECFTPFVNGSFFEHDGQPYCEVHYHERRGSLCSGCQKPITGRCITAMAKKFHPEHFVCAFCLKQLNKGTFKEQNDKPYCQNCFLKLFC

tat-WEQLLTTIARTINEVENQI-(NH2) [tat-ACTN1_VBS]
Co-localization with vinculin (vinculin in HeLa cells): co-localized with vinculin | Aggregation after TRAP, peptide alone 1x (A 1x / B 1x) (TRAP-activated platelets; TRAP 2 μM after 6 minutes pre-incubation, 4 μM pal-peptides, 10 μM tat-peptides, mean n = 3): 68.33 | Aggregation after TRAP, peptide alone 2x (A 2x / B 2x) (TRAP-activated platelets; TRAP 2 μM after 6 minutes pre-incubation, double concentration of 4 μM (pal) / 10 μM (tat), mean n = 3): 68.67 | Platelet aggregation after TRAP activation (TRAP-activated platelets; platelet aggregation induced by 4 μM TRAP in platelets pre-incubated with peptide (low value = inhibition), pal-peptides 20 μM, tat-peptides 50 μM, mean, n>=3): 61 ^* | Aggregation after TRAP activation, donor e (TRAP-activated platelets; replicate donor e, TRAP 4 μM, pal 20 μM, tat 50 μM): 66 | Aggregation after TRAP activation, donor k (TRAP-activated platelets; replicate donor k, TRAP 4 μM, pal 20 μM, tat 50 μM): 51 | Aggregation after TRAP activation, donor l (TRAP-activated platelets; replicate donor l, TRAP 4 μM, pal 20 μM, tat 50 μM): 68 | Co-localization with paxillin (paxillin in HeLa cells): did not co-localize | Relative binding affinity to immobilised vinculin (vinculin): tat-ACTN1_VBS > TLN1_VBS-tat > ACTN1_VBS-tat > ACTN1_VBS; also recorded: bound with relatively higher affinity
